Measured values taken from article PMC5012913 (Analytical biochemistry, 2016).
≈ marks a conversion by molar mass, not a printed value. Entries after “also recorded” stand apart in the source; their conditions may differ. Where two headings read alike, the source gives them in different places.

Assays:
[1] = target: M. smegmatis WecA (P-60) (Mycolicibacterium smegmatis, UniProt A0R211); assay: Kinetic parameter evaluation via WecA activity assay; format: biochemical; details: for Vmax for C50-P-P-Glucosamine-C6-FITC synthesis: crude membrane P-60, Michaelis-Menten plot
[2] = target: WecA enzyme (P-60 from E. coli B21WecA) (Escherichia coli, UniProt P0AC78); assay: biochemical; format: biochemical
[3] = test system: WecA; details: cited from earlier work
[4] = test system: non-replicating Mtb H37Rv (pFCA-luxAB); format: cell-based, M. tuberculosis H37Rv; details: for MICLORA/MICMABA: ratio of LORA MIC to MABA MIC
[5] = target: T1, M. smegmatis WecA (Mycolicibacterium smegmatis, UniProt A0R211); format: biochemical
T1 sequence (A0R211 1-406): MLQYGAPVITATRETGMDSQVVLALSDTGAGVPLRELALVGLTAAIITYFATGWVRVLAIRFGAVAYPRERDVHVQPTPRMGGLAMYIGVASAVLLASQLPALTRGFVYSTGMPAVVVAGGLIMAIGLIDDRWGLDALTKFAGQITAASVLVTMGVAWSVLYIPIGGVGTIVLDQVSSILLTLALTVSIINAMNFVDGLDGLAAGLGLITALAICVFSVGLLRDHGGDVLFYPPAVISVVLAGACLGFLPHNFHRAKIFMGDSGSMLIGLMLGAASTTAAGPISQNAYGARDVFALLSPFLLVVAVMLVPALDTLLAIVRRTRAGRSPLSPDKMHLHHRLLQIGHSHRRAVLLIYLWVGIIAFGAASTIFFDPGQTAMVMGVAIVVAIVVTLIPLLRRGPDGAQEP

[6] = target: T2, MurX (Mycolicibacterium smegmatis, UniProt A0R019); details: cited from earlier work
T2 sequence (A0R019 1-359): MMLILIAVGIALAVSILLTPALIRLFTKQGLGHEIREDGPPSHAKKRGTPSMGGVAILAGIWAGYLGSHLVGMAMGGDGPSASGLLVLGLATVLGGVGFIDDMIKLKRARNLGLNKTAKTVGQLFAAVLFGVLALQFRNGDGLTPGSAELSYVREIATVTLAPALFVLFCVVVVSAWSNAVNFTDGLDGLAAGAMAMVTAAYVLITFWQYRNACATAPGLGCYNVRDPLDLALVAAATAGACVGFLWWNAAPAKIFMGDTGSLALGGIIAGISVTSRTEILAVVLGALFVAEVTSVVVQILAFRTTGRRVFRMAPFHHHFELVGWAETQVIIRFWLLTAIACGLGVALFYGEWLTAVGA

[7] = test system: M. tuberculosis; assay: MIC determination against replicating Mtb; format: cell-based, Mycobacterium tuberculosis (H37Rv); details: aerobic
[8] = test system: non-replicating Mtb; assay: Wayne model under low-oxygen conditions; format: cell-based
[9] = test system: intracellular Mtb CDC1551-tdTomato in J774A.1 cells; assay: Killing effect against intracellular M. tuberculosis in J774A.1 macrophages; format: cell-based

## CC(=O)N[C@H]1[C@@H](OP(=O)(O)OP(=O)(O)OC[C@H]2O[C@@H](n3ccc(=O)[nH]c3=O)[C@H](O)[C@@H]2O)O[C@H](CO)[C@@H](O)[C@@H]1O [UDP-GlcNAc]
[1]; 140 µM exogenous decaprenyl phosphate (C50-P)
  Km: 110 µM

## CCCCCCCCCC(=O)O[C@@H]1[C@H](OC)[C@@H]([C@@H](O[C@H]2OC(C(=O)N[C@H]3CCC[C@@H](C)NC3=O)=C[C@H](O)[C@@H]2O)C(N)=O)O[C@H]1n1ccc(=O)[nH]c1=O [SQ641 (8)]
[2]
  WecA enzyme inhibitory activity: no WecA enzyme inhibitory activity

## CO[C@H]1[C@@H](O)[C@H](n2ccc(=O)[nH]c2=O)O[C@@H]1[C@@H](O[C@H]1OC(C(=O)N[C@H]2CCCCNC2=O)=C[C@H](O)[C@@H]1O)C(N)=O [Capuramycin (6), Capuramycin]
[2]; at 20 µg/mL
  WecA enzyme inhibitory activity: no WecA enzyme inhibitory activity
[2]; read-out: WecA inhibition (%)
  inhibition at 0.02 µg/mL: 0%
  inhibition at 2 µg/mL: 0%
  inhibition at 20 µg/mL: 0%

## CCCCc1ccc(NC(=O)C2=CCN(C)[C@@H]([C@H](O[C@@H]3O[C@H](CN)[C@@H](O)[C@H]3O)[C@H]3O[C@@H](n4ccc(=O)[nH]c4=O)[C@H](O)[C@@H]3O)C(=O)N2C)cc1 [CPZEN-45]
[3]
  WecA inhibition: inhibit WecA at low concentrations

## UDP-Glucosamine-C6-FITC [UDP-Glucosamine-C6-FITC (1)]
[1]; with undecaprenyl phosphate
  Km: 196 µM

## CO[C@H]1/C=C/O[C@@]2(C)Oc3c(C)c(O)c4c(O)c(c(/C=N/N5CCN(C)CC5)c(O)c4c3C2=O)NC(=O)/C(C)=C\C=C\[C@H](C)[C@H](O)[C@@H](C)[C@@H](O)[C@@H](C)[C@H](OC(C)=O)[C@@H]1C [rifampicin, reference compound]
[4]
  MICLORA/MICMABA: 7.35

## Decaprenyl-P-P-Glucosamine-C6-FITC [C50-P-P-Glucosamine-C6-FITC (3)]
[1]
  Vmax for C50-P-P-Glucosamine-C6-FITC synthesis: 0.404 µM/min
[1]; listed as C50-P-P-Glucosamine-C6-FITC
  Vmax for C50-P-P-Glucosamine-C6-FITC synthesis: 0.4041 µM/min

## Tunicamycin [Tunicamycin (5), reference compound]
[5]; UV-Vis dose-response curve
  IC50 against M. smegmatis wecA: 0.59 µg/mL
[6]
  IC50 against MurX: 2.31 µg/mL

## COC1C(C(OC2OC(C(=O)NC3CCCCNC3=O)=CC(O)C2O)C(N)=O)OC(n2ccc(=O)[nH]c2=O)C1OC (centres unmarked) [UT-01320 (12)]
[2]
  WecA enzyme inhibitory activity: inhibited completely
  WecA inhibition (%) obtained via HPLC: 100 (100) %
[5]
  IC50 against M. smegmatis wecA: 0.0507 µg/mL (≈ 0.0869 µM)
[7]
  MIC (MABA), replicating Mtb: 1.5 µg/mL (≈ 2.57 µM)
[4]; low-oxygen conditions
  MIC (LORA), non-replicating Mtb: 2.58 µg/mL (≈ 4.42 µM)
[4]
  MICLORA/MICMABA: 1.72
[8]
  Effectiveness in non-replicating Mtb (Wayne model): confirmed
[9]; 2x and 4x MIC, up to 72h, J774A.1, listed as 12
  Bactericidal effect against intracellular Mtb (words, comparison with TB drugs): equal to those of capreomycin; also recorded: faster killing effect than rifampicin
[9]; x2 MICLORA, […]
  Time to kill Mtb in infected macrophages: ≤ 72 h
[6]; even at 400 µg/mL, as previously reported
  MurX enzyme inhibitory activity: did not exhibit MurX enzyme inhibitory activity
